Results reported in patent US8889153B2, “Combination of immunomodulator and anti-pathogenic agent” (priority 2008, dated 2014).
“And” between values parts separate entries of the source, which are not always exact repeats. Equal entries are not always repeated.

What was measured:
[1] = tested on: Herpes sp; test: Patients with recurrent herpetic lesions (cutaneous and genital), symptom recurrence; type: in vivo, Herpes virus (host: human patients); details: Acyclovir alone, oral, 3 daily doses of 200 mg, 10 days
[2] = tested on: TH-1 and TH-2 types cytokines (IL-2, IFN-gamma, IL-4, and IL-10); test: Cytokine dosage (sandwich-ELISA, Con-A stimulated spleen culture supernatant) in experimental L. monocytogenes infection; type: in vivo, BALB/c mice
[3] = tested on: L. monocytogenes; test: Experimental L. monocytogenes infection, lethal dose, survivors at 30 days; type: in vivo, Listeria monocytogenes (host: BALB/c mice); details: BALB/c mice, n = 10 per group, 2×10^6 L. monocytogenes i.p.; Immunomodulator 100 mg/kg single dose i.p.; Rifampicine 2 mg/kg and Gentamicin 2 mg/kg × 5 days
[4] = tested on: M. tuberculosis-Erdman; design: species or system Mycobacterium tuberculosis (host: C57BL/6 mice); details: mouse, in vivo
[5] = tested on: Plasmodium chabaudi; test: Experimental Plasmodium chabaudi infection, survival and parasitemia; type: in vivo, Plasmodium chabaudi (host: C57BL/6 mice); details: for Survival/Number of animals: 21 days observation
[6] = tested on: L. monocytogenes; details: experimental animals; PI0305373-3, U.S. Ser. No. 10/978,683, EPA 0426250.3.2405; cited from earlier work
[7] = tested on: HCV subtype I-b; test: Clinical trial in hepatitis C patients, laboratorial parameters; details: two patients (A and D) of 5; Immunomodulator 25 mg weekly i.m., 12 months; no treatment interruption
[8] = tested on: Candida sp; details: 20 HIV/AIDS patients per group, Fluconazole 400 mg/day × 5 days oral, Immunomodulator 10 mg/day × 5 days i.m.
[9] = Control (non-infected) BALB/c mice, Immunomodulator 5 mg/kg/day i.p. 7 days
[10] = Infected 48 h (2×10^4 L. monocytogenes i.p.), Immunomodulator 5 mg/kg/day i.p. 7 days prior to inoculation
[11] = Infected 72 h (2×10^4 L. monocytogenes i.p.), Immunomodulator 5 mg/kg/day i.p. 7 days prior to inoculation
[12] = Group G: Immunomodulator 100 mg/kg i.p. single dose
[13] = Group D: Chloroquine 5 mg/kg single i.p. dose
[14] = Group E: Chloroquine 2 mg/kg single i.p. dose

**Q.** Which results are given for `Nc1nc(=O)c2ncn(COCCO)c2[nH]1` [Acyclovir, 2-amino-9-[(2-hydroxyethoxy)methyl]-3,9-dihydro-6H-purin-6-one]?
**A.** average recurrence period of time of the disease symptoms ([1]; first stage, 30 patients): 2 months; average recurrence period of symptoms ([1]; second stage, 15 patients): 2 months

**Q.** For “proteic aggregate of ammonium and magnesium phospholinoleate-palmitoleate anhydride [Immunomodulator]”, which IFN-γ [2, 9] is on record?
**A.** 1012 ± 41 pg/mL

**Q.** And the Il-2 [2, 9]?
**A.** 167 ± 11 pg/mL

**Q.** And the Il-4 [2, 9]?
**A.** 63 ± 19 pg/mL

**Q.** What about the Il-10 [2, 9] of the same molecule?
**A.** 227 ± 37 pg/mL

**Q.** What about the IFN-γ [2, 10] of the same molecule?
**A.** 1691 ± 62 pg/mL

**Q.** And the Il-2 [2, 10]?
**A.** 206 ± 31 pg/mL

**Q.** And the Il-4 [2, 10]?
**A.** 75 ± 18 pg/mL

**Q.** And the Il-10 [2, 10]?
**A.** 224 ± 17 pg/mL

**Q.** What about the IFN-γ [2, 11] of the same molecule?
**A.** 1884 ± 70 pg/mL

**Q.** And the Il-2 [2, 11]?
**A.** 248 ± 34 pg/mL

**Q.** What about the Il-4 [2, 11] of the same molecule?
**A.** 73 ± 11 pg/mL

**Q.** And the Il-10 [2, 11]?
**A.** 221 ± 37 pg/mL

**Q.** What about the “% surviving animals - 30 days” value [3] of the same molecule?
**A.** 30%

**Q.** What about the “Number surviving animals - 30 days” value [3] of the same molecule?
**A.** 3

**Q.** And the “Bacillary load - Lung + Standard Deviation (SD)” value [4]?
**A.** 5.42 ± 0.59 and 4.85 ± 0.46

**Q.** What about the “Bacillary load - Spleen + Standard Deviation (SD)” value [4] of the same molecule?
**A.** 5.25 ± 0.61 and 4.93 ± 0.47

**Q.** What about the Day of death ([5]; Group F: Immunomodulator 5 mg/kg × 5 days) of the same molecule?
**A.** 11 days

**Q.** What about the Survival/Number of animals ([5]; Group F: Immunomodulator 5 mg/kg × 5 days, start 1 day after infection) of the same molecule?
**A.** 0-6

**Q.** And the “Parasitemia (%) ± Standart deviation (SD)” value ([5]; Group F: Immunomodulator 5 mg/kg × 5 days, day 5)?
**A.** 54 ± 0.8 (day 5) %

**Q.** And the Day of death [5, 12]?
**A.** 12 days

**Q.** What about the Survival/Number of animals [5, 12] of the same molecule?
**A.** 0-6

**Q.** And the “Parasitemia (%) ± Standart deviation (SD)” value ([5]; Group G: Immunomodulator 100 mg/kg i.p. single dose, day 5)?
**A.** 52 ± 0.9 (day 5) %

**Q.** And the “increase in survival rate in relation to the control animals” value ([5]; Groups F and G: Immunomodulator 5 mg/kg × 5 days and 100 mg/kg single dose)?
**A.** 3 to 4 days

**Q.** What about the “protection against infection by lethal dose of L. monocytogenes” value [6] of the same molecule?
**A.** partial protection

**Q.** What about the “tolerance at the site of injection” value [7] of the same molecule?
**A.** mild pain and discomfort at the site of injection

**Q.** For `CCN(CC)CCCC(C)Nc1ccnc2cc(Cl)ccc12` (stereo not drawn) [Chloroquine, N′-(7-chloroquinolin-4-yl)-N,N-diethyl-pentane-1,4-Diamine], which Survival/Number of animals ([5]; Group B: Chloroquine 15 mg/kg single i.p. dose) is on record?
**A.** 6-6

**Q.** And the “Parasitemia (%) ± Standart deviation (SD)” value ([5]; Group B: Chloroquine 15 mg/kg single i.p. dose, day 5)?
**A.** 17 ± 0.7 (day 5) %

**Q.** And the “Parasitemia (%) ± Standart deviation (SD)” value ([5]; Group B: Chloroquine 15 mg/kg single i.p. dose, day 21)?
**A.** 8 ± 1.2 (day 21%

**Q.** And the “increase in survival rate compared to the control groups” value ([5]; Group D: Chloroquine 5 mg/kg)?
**A.** 2 days

**Q.** What about the Day of death [5, 13] of the same molecule?
**A.** 10 days

**Q.** And the Survival/Number of animals [5, 13]?
**A.** 0-6

**Q.** And the “Parasitemia (%) ± Standart deviation (SD)” value ([5]; Group D: Chloroquine 5 mg/kg single i.p. dose, day 5)?
**A.** 65 ± 0.9 (day 5) %

**Q.** What about the “difference in the survival rate to the control groups” value ([5]; Group E: Chloroquine 2 mg/kg) of the same molecule?
**A.** no significant difference

**Q.** And the Day of death [5, 14]?
**A.** 8 days

**Q.** And the Survival/Number of animals [5, 14]?
**A.** 0-6

**Q.** And the “Parasitemia (%) ± Standart deviation (SD)” value ([5]; Group E: Chloroquine 2 mg/kg single i.p. dose, day 5)?
**A.** 89 ± 1.3 (day 5) %

**Q.** What does the source list for `NNC(=O)c1ccncc1` [INH, pyridine-4-carbohydrazide, reference compound]?
**A.** Bacillary load - Lung + Standard Deviation (SD) [4]: 3.52 ± 0.65; Bacillary load - Spleen + Standard Deviation (SD) [4]: 4.82 ± 0.62

**Q.** With `OC(Cn1cncn1)(Cn1cncn1)c1ccc(F)cc1F` [Antifungal] as the molecule, how does the “% Respondents” value [8] read?
**A.** 100%

**Q.** And the “Symptoms Average recurrence period” value ([8]; six months follow-up)?
**A.** 45 days
